Reference: paper PMC11678237 (2024)

Columns and labels:
[1] = test system: poly(dA)•2poly(dT) (DNA, polymer) A/T; test: UV melting, 260 nm; conditions: pH 7.0; for binding / ΔTm3→2: 150 mM KCl, 10 mM sodium cacodylate; for ΔTm3→2: per base
[2] = test system: DNA3 (DNA, triplex) GAAAAAAAAAAAAAGTTTTCTTTTTTTTTTTTCTTTTCTTTTTTTTTTTTTC; test: ITC; conditions: 100 mM NaCl, 10 mM sodium cacodylate, pH 7.0, 15 °C; for Kd: independent model
[3] = test system: DNA4 (DNA, hairpin) GAAAAAAAAAAAAAGTTTTCTTTTTTTTTTTTTC; test: ITC; conditions: 100 mM NaCl; 10 mM sodium cacodylate, pH 7.0, 15 °C; 100 μM ligand titrant; heat of dilution only
[4] = test system: poly(dA)•2poly(dT) (DNA, polymer) A/T; test: viscosity; conditions: 150 mM KCl; 10 mM sodium cacodylate, pH 7.0, room temperature; intercalation
[5] = test system: poly(dA)•poly(dT) (DNA, polymer) A/T; test: UV melting; conditions: 150 mM KCl; 10 mM sodium cacodylate, pH 7.0; 10 μM compound; Tm2→1 stays near 72 °C
[6] = test system: DNA3 (DNA, triplex) GAAAAAAAAAAAAAGTTTTCTTTTTTTTTTTTCTTTTCTTTTTTTTTTTTTC; test: CD titration; conditions: 100 mM NaCl; 10 mM sodium cacodylate, pH 7.0, 15 °C; 0 to 50 μM compound
[7] = test system: DNA4 (DNA, hairpin) GAAAAAAAAAAAAAGTTTTCTTTTTTTTTTTTTC; test: CD titration; conditions: 100 mM NaCl; 10 mM sodium cacodylate, pH 7.0, 15 °C; 0 to 50 μM compound
[8] = test system: DNA1/DNA2/TFO1 triplex (DNA, triplex) ATGGCAAAAAAAAGGAGAAGCTGACCACCTGACTA/TAGTCAGGTGGTCAGCTTCTCCTTTTTTTTGCCAT/CTTTCTTTTTTTTTCCTCTTC; test: native PAGE gel shift; conditions: none added; 90 mM Tris–acetate, pH 5.0; 1 to 100 μM compound; triplex formation promoted
[9] = 10 μM compound, 15 μM base triplet
[10] = 10 mM lithium cacodylate, no added salt, 10 μM compound, Tm not shift, no triplex without ligand, duplex Tm 58 °C

## CC(C)CCCOc1cccc2oc(-c3ccccc3)cc(=O)c12
[1]; [9]
  binding: no

## CCCN(CCC)CCCOc1cccc2oc(-c3ccccc3)cc(=O)c12
[1]; [9]
  ΔTm3→2: 23.8 °C

## CCN(CC)CCCOc1cccc2oc(-c3ccccc3)cc(=O)c12
[1]; [9]
  ΔTm3→2: 24.4 °C

## CN1CCN(CCCOc2cccc3oc(-c4ccccc4)cc(=O)c23)CC1
[1]; [9]
  ΔTm3→2: 25.7 °C

## NCCCOc1cccc2oc(-c3ccccc3)cc(=O)c12
[1]; [9]
  ΔTm3→2: 23.2 °C

## NC[C@@H]1O[C@H](O[C@H]2[C@@H](O)[C@H](O[C@@H]3[C@@H](O)[C@H](N)C[C@H](N)[C@H]3O[C@H]3O[C@H](CN)[C@@H](O)[C@H](O)[C@H]3N)O[C@@H]2CO)[C@H](N)[C@@H](O)[C@@H]1O
[1]; 0 to 20 μM compound, no effect at 0.5 μM
  binding: yes

## O=c1cc(-c2ccccc2)oc2cccc(O)c12
[2]; 100 μM ligand titrant, heat of dilution only
  binding: no
[1]; [9]
  binding: weak

## O=c1cc(-c2ccccc2)oc2cccc(OCCCCN3CCCCC3)c12
[2]
  Kd: 3.08 ± 1.26 × 10^-5 M
[1]; [10]
  Tm3→2: 40 °C
[1]; [9]
  ΔTm3→2: 12.1 °C

## O=c1cc(-c2ccccc2)oc2cccc(OCCCN3CCCC3)c12
[1]; [9]
  ΔTm3→2: 19.4 °C

## O=c1cc(-c2ccccc2)oc2cccc(OCCCN3CCCCC3)c12
[2]
  Kd: 1.01 ± 0.20 × 10^-5 M
[3]
  binding: no
[4]
  binding: yes
[5]
  binding: no
[6]
  binding: yes
[7]
  binding: no
[1]; [10]
  Tm3→1: 60.7 °C
[8]
  binding: yes

## O=c1cc(-c2ccccc2)oc2cccc(OCCCN3CCOCC3)c12
[1]; [9]
  ΔTm3→2: 26.7 °C

## O=c1cc(-c2ccccc2)oc2cccc(OCCCO)c12
[1]; [9]
  ΔTm3→2: 5.4 °C

## O=c1cc(-c2ccccc2)oc2cccc(OCCN3CCCCC3)c12
[2]
  Kd: 2.10 ± 1.12 × 10^-5 M
[1]; [10]
  Tm3→2: 55 °C
[1]; [9]
  ΔTm3→2: 22.6 °C
